Patent US6046177A, “Sulfoalkyl ether cyclodextrin based controlled release solid pharmaceutical formulations” (Cydex, Inc., priority 1999, dated 2000)

What was measured:
[1] = glibomuride-β-cyclodextrin complex vs. physical mixture; cited from earlier work
[2] = In vitro release of methylprednisolone and SBE7 β-CD from tablets (USP apparatus II); type: physicochemical
Experimental: The MP and SBE7 β-CD (present in a 1:7 molar ratio) along with a pharmaceutical carrier were compressed into a solid core which was spray coated with a mixture of ethylcellulose, PEG3350, PEG400 and ethanol to form a 140 μm thick film coating around the solid core. The dissolution profile was determined using USP dissolution apparatus II (100 rpm, 37° C.) and an HPLC assay for methylprednisolone (MP). […] The first formulation, indicated in FIG. 1 by the hollow circles, contains the separately preformed MP-SBE7 β CD freeze-dried complex. The second formulation, indicated by the filled in circles, contains a major portion of uncomplexed MP as a physical mixture with SBE7 β-CD. The third formulation, indicate by the squares, contains a physical mixture of lactose, fructose and MP.
The tablet core was prepared with a 1/7 molar ratio of methylprednisolone/(SBE)7 -β-CD. This ratio was calculated using the previously determined binding constant in order to have sufficient (SBE)7 -β-CD in the tablet core to solubilize all the methylprednisolone present. […] The tablet core consisted of either the methylprednisolone-(SBE)7-β-CD complex or the physical mixture of the two compounds. The complex was prepared by freeze drying a methylprednisolone-(SBE)7 -β-CD solution (5-15% in (SBE)7-β-CD). Non (SBE)7 -β-CD containing tablets were also prepared. They consisted of a 1/7 ratio of methylprednisolone to a 50:50 (w/w) mixture of fructose and lactose (Fischer Scientific, N.J.). The mixtures were ground in a mortar and sieved through a 200 mesh (75 μm) screen under low humidity conditions. The mixtures were stored in a dessicator when not used. Tablets of around 150 mg were compressed into the dissolution die using a Carver Laboratory Press (Fred S. Carver Inc., N.J.) at 1 ton during 1 min.
The coating formulation was prepared by mixing 4.5% of ethylcellulose (Ethocel Standard 10 Premium, Dow Chemicals, Mich.) with an equivalent amount of poly(ethylene glycol) 3350 (PEG 3350, Sigma, MO). 0.9% of PEG 400 (Sigma, MO) and 90.1% of absolute ethanol were added to the mixture. The dispersion was shaken and sonicated until complete dissolution of the solid components. The coating solution was air sprayed (Airbrush, Paasche) on a Teflon surface under constant air flow (40° C.). At the end of the spraying, the membranes were dried under the 40° C. air flow for 5 min. They were then left at room temperature during 24 hours. The membranes were peeled off the Teflon surface, checked for cracks and flaws under a light microscope (X70) and their thickness was measured using a micrometer (Ames, Mass.). The membranes were then secured on the dissolution die containing the tablet, with the face which was sprayed on the Teflon in contact with the tablet surface.
The release studies were realized by placing the dissolution die in a USP dissolution apparatus II (Vanderkamp 600, VanKel Industries Inc.) containing 350 ml of water at 37° C., 100 rpm. Samples were collected at various time points. The 100% release was determined by removing the membrane from the die and allowing the drug dissolution to be complete.

[3] = Release of methylprednisolone from tablets with […] RS/RL coating without pore forming agent (FIG. 15); type: physicochemical; details: Eudragit RS:RL 9 to 1, approximately 5 wt.% coating
From the text: As previously mentioned, it is not required that a pharmaceutical formulation according to the invention comprise a coated core wherein the coat comprises a film forming agent and a pore forming agent. […] In this formulation, the coat comprises a combination of Eudragit™ RS and Eudragit™ RL in a 9 to 1 weight ratio and the coating on the core of the tablet comprises approximately 5 wt.% of the total weight of the tablet. Accordingly, the present invention also provides controlled release pharmaceutical formulations consisting essentially of a core surrounded by a coat which comprises a film forming agent wherein the coat controls the rate of delivery of the drug even absent a pore forming agent in the coating.
The above formulation was prepared by first reducing the particle size of the SBE7 -βCD with a wedgewood mortar and pestle and then passing the powder through a 100 mesh screen. The sodium stearyl fumarate was also sieved through a 100 mesh screen prior to use. The SBE7 -βCD and MP were blended together geometrically in a glass mortar. The CEOLUS™, SUPERTAB™, PRUV™ components were then added in order in sequential steps while mixing. Tablets weighing approximately 250 mg each were compressed by hand on a Stokes B2 tablet press using 7 mm standard cup concave toolings. The tablets were compressed to a hardness of approximately 14 kp. […]

[4] = In vitro release of testosterone from tablets (USP apparatus II); type: physicochemical; details: 1:1 molar TST:SBE7 β-CD; sorbitol/PEG 400/cellulose acetate film; FIG. 8
Experimental: (FIG. 8) The solid core of the tablet comprised a 1:1 molar ratio of TST and SBE7 β-CD. The film coating of this tablet comprised sorbitol, PEG 400 and cellulose acetate. The release profiles of the physical mixture and complex formulation were compared to that of a baseline TST/fructose-lactose formulation.
The tablet core was prepared with a 1/1 molar ratio of testosterone/(SBE)7 -β-CD. The tablet core consisted of either the testosterone-(SBE)7 -β-CD complex or the physical mixture of the two compounds. The complex was prepared by freeze-drying a testosterone-(SBE)7 -β-CD solution (5-15% in (SBE)7m -β-CD). Non (SBE)7 -β-CD containing tablets were also prepared. […]
Semi-permeable Membrane Preparation The coating formulation was prepared by dissolving 1.0% of sorbitol (Sigma, MO) in 3.7% of double distilled water and 0.4% of PEG 400 (Sigma, MO). […] The membranes were peeled off the surface, checked for cracks and flaws under a light microscope (X70) and their thickness was measured using a Micrometer (Ames, Mass.). […]
The release studies were realized by placing the dissolution die in a USP dissolution apparatus II (Vanderkamp 600, VanKel Industries Inc.) containing 900 ml of water at 37° C., 100 rpm. […] The 100% release was determined by removing the membrane from the die and allowing the drug dissolution to be complete. The samples were analyzed by HPLC for testosterone concentration.

[5] = Release of testosterone from osmotic pumps; type: physicochemical; details: osmotic pump with (SBE)7m -β-CD vs. sugar mixture or HP-β-CD; FIG. 25
Experimental: For the preparation of cores, physical mixtures of TS with (SBE)7m -β-CD, HP-β-CD or sugar (physical mixture of lactose and fructose, 1/1) each containing 10 mg TS were compressed at 1 ton/cm^2 for 60 sec using a Carver™ Laboratory Press with a 6.35 mm flat faced punch. The molar ratios of TS to (SBE)7m -β-CD in the physical mixtures ranged from 1:1 to 1:1.43 and that in the physical mixture with HP-β-CD ranged from 1:1 to 1:1.79. The physical mixtures of TS with the β-CD derivatives or sugar were prepared using a mortar and a pestle. The compressed tablet core was placed in a tablet die as described above. […]
The dissolution and release rates of TS from core tablets (no membrane covering) or the osmotic pump devices (core tablets covered by a semipermeable membrane) were measured using a USP apparatus utilizing the paddle method. […] The amount of each osmotic pump agent, (SBE)7m -β-CD, HP-β-CD and sugar, released from the OPT was calculated by difference from the weight of the total ingredients released and the weight of the remaining released components at each sampling time in the study. […] The weight of the released osmotic agent was measured as a residual weight after evaporating and vacuum drying a 200 ml solution sample for 12 hr at 60° C. […]

Cc1ccc(S(=O)(=O)NC(=O)NC2C3CCC(C)(C2O)C3(C)C)cc1 (stereo not shown) [glibomuride]
bioavailability of complex vs. physical mixture [1]: two to three fold better

C[C@H]1C[C@@H]2[C@H]([C@@H](O)C[C@@]3(C)[C@H]2CC[C@]3(O)C(=O)CO)[C@@]2(C)C=CC(=O)C=C12 [methylprednisolone]
release profile, MP vs. SBE7 β-CD ([2]; 140 μm film, FIG. 2a, 2b): substantially the same release profiles | release profile, physical mixture vs. freeze dried complex ([2]; 200 μm film, FIG. 3a, 3b): a slight difference was noted in the release profiles of the physical mixture versus the freeze dried complex | release profile, physical mixture vs. preformed complex ([2]; MP:SBE7 β-CD 1:7 molar, 140 μm ethylcellulose/PEG film, FIG. 1, 2): release profile similar to or substantially similar to the former | effect of MP/SBE7 β-CD ratio on release ([2]; film coated tablets, ratios 1/10, 1/7, 1/3, FIG. 7a-7d): decreasing the relative amount of SBE7 β-CD decreases the observed release profile for MP | release profile, physical mixture vs. complex, uncoated core ([2]; no film, FIG. 6): The physical mixture exhibits substantially the same release profiles as the complex | release characteristics, physical mixture vs. freeze dried complex ([2]; ratios 1/10, 1/7, 1/3, FIG. 7a-7d): substantially the same release characteristics | release of MP, coat without pore forming agent [3]: MP is released from a tablet formulation

C[C@]12CC[C@H]3[C@@H](CCC4=CC(=O)CC[C@@]43C)[C@@H]1CC[C@@H]2O [testosterone]
release profile, physical mixture vs. freeze dried complex [4]: exhibited the same release profile as the respective freeze dried mixture | release from osmotic pumps [5]: released a greater amount of TS and at a more acceptable rate than the osmotic pumps containing the sugar mixture or HP-β-CD
